Reference: the NIST ThermoML archive (doi:10.1021/je060271a)

Conditions: 303.15 K, Liquid, Vibrating tube method

CCCCC(=O)OCC(COC(=O)CCCC)(COC(=O)CCCC)COC(=O)CCCC [pentaerythritol tetrapentanoate]
Conditions	mass density [kg/m3]
24416 kPa	1025.8
24455 kPa	1025.9
24486 kPa	1025.8
24518 kPa	1026
24556 kPa	1025.8
24588 kPa	1025.8
24618 kPa	1026.1
24648 kPa	1025.9
24685 kPa	1026.1
24717 kPa	1026
24757 kPa	1026
24790 kPa	1025.9
24823 kPa	1026.1
24863 kPa	1026.1
24893 kPa	1026.2
24922 kPa	1026
24956 kPa	1026.1
24986 kPa	1026.1
25015 kPa	1026.2
25045 kPa	1026.1
25080 kPa	1026.2
25109 kPa	1026.2
25144 kPa	1026.2
25174 kPa	1026.2
25203 kPa	1026.3
25233 kPa	1026.4
25269 kPa	1026.3
25298 kPa	1026.2
25328 kPa	1026.3
25364 kPa	1026.3
25394 kPa	1026.4
25430 kPa	1026.2
25460 kPa	1026.4
25490 kPa	1026.3
25527 kPa	1026.3
25558 kPa	1026.5
25588 kPa	1026.4
25624 kPa	1026.5
25654 kPa	1026.6
25686 kPa	1026.6
25753 kPa	1026.5
25785 kPa	1026.6
25816 kPa	1026.6
25854 kPa	1026.6
25885 kPa	1026.7
25916 kPa	1026.7
25954 kPa	1026.8
25985 kPa	1026.7
26023 kPa	1026.6
26054 kPa	1026.7
26086 kPa	1026.8
26119 kPa	1026.7
26157 kPa	1026.8
26190 kPa	1026.8
26222 kPa	1027
26261 kPa	1026.9
26294 kPa	1026.9
26326 kPa	1027
26365 kPa	1027
26398 kPa	1026.9
26431 kPa	1027
26469 kPa	1027
26503 kPa	1027
26536 kPa	1027
26575 kPa	1027.2
26609 kPa	1027
26642 kPa	1027
26686 kPa	1027.2
26712 kPa	1027.1
26753 kPa	1027.2
26787 kPa	1027.1
26822 kPa	1027.2
26863 kPa	1027.3
26897 kPa	1027.2
26931 kPa	1027.2
26966 kPa	1027.3
27007 kPa	1027.3
27042 kPa	1027.2
27077 kPa	1027.3
27119 kPa	1027.3
27156 kPa	1027.3
27191 kPa	1027.3
27233 kPa	1027.5
27268 kPa	1027.3
27303 kPa	1027.5
27338 kPa	1027.4
27381 kPa	1027.4
27416 kPa	1027.6
27452 kPa	1027.5
27495 kPa	1027.6
27531 kPa	1027.5
27574 kPa	1027.6
27611 kPa	1027.7
27647 kPa	1027.7
27683 kPa	1027.6
27727 kPa	1027.6
27763 kPa	1027.7
27800 kPa	1027.6
27844 kPa	1027.8
27881 kPa	1027.8
27919 kPa	1027.7
27964 kPa	1027.8
28003 kPa	1027.8
28041 kPa	1027.8
28089 kPa	1027.9
28128 kPa	1027.9
28160 kPa	1027.9
28193 kPa	1027.8
28221 kPa	1027.9
28249 kPa	1028
28282 kPa	1028
28310 kPa	1028
28338 kPa	1028
28366 kPa	1028
28399 kPa	1028
28427 kPa	1027.9
28461 kPa	1028.1
28489 kPa	1028
28518 kPa	1028.1
28546 kPa	1028.1
28580 kPa	1028
28609 kPa	1028.1
28638 kPa	1028.2
28672 kPa	1028.1
28700 kPa	1028.2
28729 kPa	1028.2
28764 kPa	1028.3
28792 kPa	1028.2
28821 kPa	1028.3
28856 kPa	1028.3
28885 kPa	1028.5
28915 kPa	1028.3
28950 kPa	1028.4
28978 kPa	1028.3
29008 kPa	1028.4
29043 kPa	1028.4
29072 kPa	1028.4
29102 kPa	1028.5
29132 kPa	1028.5
29168 kPa	1028.4
29198 kPa	1028.4
29228 kPa	1028.5
29264 kPa	1028.6
29294 kPa	1028.6
29325 kPa	1028.5
29356 kPa	1028.5
29392 kPa	1028.5
29422 kPa	1028.6
29453 kPa	1028.6
29483 kPa	1028.6
29520 kPa	1028.7
29550 kPa	1028.7
29587 kPa	1028.7
29617 kPa	1028.6
29648 kPa	1028.8
29684 kPa	1028.7
29716 kPa	1028.7
29749 kPa	1028.8
29779 kPa	1028.8
29810 kPa	1028.8
